Source: US20110166079A1, “METHODS OF TREATING CANCER WITH APOE PEPTIDES” (COGNOSCI, INC., priority 2008, published 2011)
Read-outs that look alike come from different tables or passages of the source. Non-standard residues stand in square brackets, D forms with d. Residues, ends and D or L forms follow the SMILES beside them. No end group written: not given here. Arg(NO2) = N=C(NCCC[C@H](N)C(=O)O)N[N+](=O)[O-]; Aib = CC(C)(N)C(=O)O

Experiments:
[1] = tested on: IκB; test: LPS-induced phosphorylation of IκB in BV2 microglia (Western blot); type: cell-based, mouse; conditions: 100 ng/mL LPS, 5 μM COG133, FIG. 2A
Protocol: To determine whether COG peptides modulated the PI-3 kinase/Akt pathway and subsequent activation of NFκB, the phosphorylation state of proteins in the pathway was analyzed in cells exposed to bacteria or a bacterial antigen (lipopolysaccharide) in the absence and presence of COG peptides. In a first series of experiments, mouse BV2 microglia in six well plates were incubated with 100 ng/mL of LPS alone or in the presence of 5 μM COG133 (SEQ ID NO: 1) peptide. Cells were lysed and a clarified extract prepared by centrifugation. Polyacrylamide gels were loaded with 30 μg of extract per lane and run in SDS buffer. […] Membranes were then probed with an anit-phospho-IκBα antibody. Membranes were developed with Enhanced Chemiluminescence substrates (GE healthcare) and visualized by exposure to film. Membranes were then stripped and reprobed for total IκB using a non phospho-specific anti-IκBα antibody. A duplicate blot was probed with anti-GAPDH antibodies.

[2] = tested on: NFκB; test: NFκB nuclear translocation in LPS-stimulated BV2 microglial cells (gel shift); type: cell-based, mouse; conditions: nuclear extracts, FIG. 2B
Protocol: In the dephosphorylated state, IκB binds to the transcription factor NFκB and prevents it from translocating to the nucleus to activate transcription of pro-survival proteins. […] A radiolabeled oligonucelotide containing a NFκB binding site was added to the proteins from the nuclear extracts and the proteins were subsequently separated by non-denaturing polyacrylamide gel electrophoresis. The amount of NFκB present in the nuclear extracts was detected by autoradiography (FIG. 2B). Nuclear NFκB was reduced in the presence of COG133 providing further evidence that this signal transduction cascade is suppressed in cells treated with ApoE peptides.

[3] = tested on: B-CLL cells; test: Cytotoxicity on B-CLL cells from CLL patients (MTS assay); conditions: for Fold Change: EC50 relative to COG056 control
Protocol: To determine whether COG peptides could counteract the overactivation of the Akt/NFkB pathway in B-CLL cells and effectively induce apoptosis, cytotoxicity testing was performed on freshly isolated B-CLL cells from CLL patients with COG peptides. Blood from CLL patients was collected and CD5+/CD19+ CLL cells were isolated using the RosetteSep™ Human B Cell Enrichment Cocktail. This method depletes whole blood of T cells, monocytes, and NK cells using a proprietary antibody cocktail containing anti-CD14, anti-CD2 and anti-CD16 antibodies to remove T cells, monocytes, and NK cells, respectively. The antibody cocktail crosslinks unwanted cells in human whole blood to multiple red blood cells forming immunorosettes thereby increasing the density of the rosetted cells, such that they pellet along with the free RBCs when centrifuged over a buoyant density medium such as Ficoll-Paque®. The highly enriched B-cell or B-CLL cells are left at the interface between Ficoll and the plasma.
COG peptides were applied to the isolated B-CLL cells (0.25×10^6 cells/well in a 96 well plate) for 72 hours, after which viable cells were assessed using the MTS assay ([…]).
Additional B-CLL cells and peripheral blood mononuclear cells (PBMC; i.e., normal B cells) were isolated from leukemia patients and normal volunteers, respectively, and were treated with a range of COG112 concentrations.

[4] = tested on: microglial cells; conditions: relative to COG133, microglial cells; cited from earlier work
[5] = molecular target: T1, PP2A (Mus musculus, UniProt P63330); test: PP2A activity in RAW cells (immunoprecipitation / phosphate release); type: cell-based; conditions: 30 minutes, 2 μM COG112, 10 nM okadaic acid, FIG. 3
T1 construct: cells were lysed and PP2A was immunoprecipitated by adding an antibody targeted to the catalytic C-subunit of PP2A; endogenous in cells; host or cells: mouse macrophagic RAW cells
Protocol: Mouse macrophagic RAW cells were incubated with either 2 μM COG112 (SEQ ID NO: 2), 10 nM okadaic acid (an inhibitor of PP2A), or okadaic acid and COG112. After 30 minutes, cells were lysed and PP2A was immunoprecipitated by adding an antibody targeted to the catalytic C-subunit of PP2A. Half of the immunoprecipitate was separated by SDS-PAGE, blotted on to nitrocellulose, and probed with an anti-PP2AC antibody. The remaining portion was assayed for activity by adding 125 μL assay cocktail containing a phospho-threonine substrate peptide to the immunoprecipitated enzyme. After incubating at 37° C. with shaking, a 25 μL aliquot was removed and added to an ammonium molybdate solution (Upstate) that chelates free phosphate and changes color upon chelate formation. Aliquots were removed at various time intervals and the amount of free phosphate released from the peptide was determined by comparison to a phosphate standard curve. The rate of phosphate release was determined by linear fit to the time course data and was normalized to the relative PP2A concentration. […] PP2A activity was reduced in the presence of okadaic acid alone as expected. […] Thus, the active pool of PP2A in a cell can be regulated by ApoE peptides.

[6] = B-CLL cells, 72 hours, MTS assay

T1 sequence (P63330 whole entry): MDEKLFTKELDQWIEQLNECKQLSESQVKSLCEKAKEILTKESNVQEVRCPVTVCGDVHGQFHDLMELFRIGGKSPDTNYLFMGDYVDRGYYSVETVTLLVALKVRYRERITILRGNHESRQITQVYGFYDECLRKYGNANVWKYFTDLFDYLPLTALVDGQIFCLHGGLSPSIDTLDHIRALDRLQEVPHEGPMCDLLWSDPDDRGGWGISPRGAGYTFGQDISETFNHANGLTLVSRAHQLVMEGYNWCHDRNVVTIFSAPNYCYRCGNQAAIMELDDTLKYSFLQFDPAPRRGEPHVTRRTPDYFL

CC(=O)N[C@@H](CC(C)C)C(=O)N[C@@H](CCCNC(=N)N)C(=O)N[C@H](C(=O)N[C@@H](CCCNC(=N)N)C(=O)N[C@@H](CC(C)C)C(=O)N[C@@H](C)C(=O)N[C@@H](CO)C(=O)N[C@@H](Cc1c[nH]cn1)C(=O)N[C@@H](CC(C)C)C(=O)N[C@@H](CCCNC(=N)N)C(=O)N[C@@H](CCCCN)C(=O)N[C@@H](CC(C)C)C(=O)N[C@@H](CCCNC(=N)N)C(=O)N[C@@H](CCCCN)C(=O)N[C@@H](CCCNC(=N)N)C(=O)N[C@@H](CC(C)C)C(=O)N[C@@H](CC(C)C)C(N)=O)C(C)C [COG133]
LPS-induced phosphorylation of IκB [1]: reduces
nuclear NFκB [2]: reduced
cytotoxic activity compared in words [3, 6]: slightly improved activity relative to the COG056
Fold Change [3]: 2.9

CC(C)C[C@H](NC(=O)[C@H](CC(C)C)NC(=O)[C@H](CCCNC(=N)N)NC(=O)[C@H](CCCCN)NC(=O)[C@H](CCCNC(=N)N[N+](=O)[O-])NC(=O)[C@H](CC(C)C)NC(=O)[C@H](CCCNC(=N)N)NC(=O)[C@H](CCCCN)NC(=O)[C@H](CC(C)C)NC(=O)C(C)(C)NC(=O)[C@H](CO)NC(=O)[C@H](C)NC(=O)[C@H](CC(C)C)NC(=O)[C@H](CCCNC(=N)N)NC(=O)[C@@H](NC(=O)[C@H](CCCNC(=N)N)NC(=O)[C@@H](N)CC(C)C)C(C)C)C(=O)O [COG248, LRVRLAS(Aib)LKRL(nitroR)KRLL] (H-LRVRLAS[Aib]LKRL[Arg(NO2)]KRLL-OH)
cytotoxic activity compared in words [3, 6]: enhanced activity compared to COG133
Fold Change [3]: 5.5

CC(=O)N[C@@H](C)C(=O)N[C@@H](CO)C(=O)NC(C)(C)C(=O)N[C@@H](CC(C)C)C(=O)N[C@@H](CCCNC(=N)N)C(=O)N[C@@H](CCCCN)C(=O)N[C@@H](CC(C)C)C(=O)NC(C)(C)C(=O)N[C@@H](CCCCN)C(=O)N[C@@H](CCCNC(=N)N)C(=O)N[C@@H](CC(C)C)C(=O)N[C@@H](CC(C)C)C(N)=O [COG1410, Ac-AS-Aib-LRKL-Aib-KRLL-NH2] (Ac-AS[Aib]LRKL[Aib]KRLL-NH2)
potency for suppressing NO production [4]: improved potency
cytotoxic activity compared in words [3]: no difference in potency
Fold Change [3]: 2.3
EC50 ([3]; read-out: EC50 (cytotoxicity of COG compounds on B-CLL cells), isolated B-CLL cells, 72 hours, MTS assay): 5.7 ± 3 µM

C=C1[C@@H](O)[C@@H]2O[C@]3(CC[C@H](/C=C/[C@@H](C)[C@@H]4CC(C)=C[C@@]5(O[C@H](C[C@@](C)(O)C(=O)O)CC[C@H]5O)O4)O3)CC[C@H]2O[C@@H]1[C@@H](O)C[C@H](C)[C@H]1O[C@@]2(CCCCO2)CC[C@H]1C [okadaic acid, reference compound]
PP2A activity (rate of phosphate release) [5]: reduced

LLRKRLKRLHSALRVRL [COG056, reference compound]
Fold Change [3]: 1.0
EC50 ([3]; human, 72 hours): 12.9 ± 4.6 µM
